Measurements published in patent publication US20070207154A1, “METHOD OF MODULATING VASCULARIZATION” (priority 2004, published 2007).

Test system: sprouting from wild-type, TFΔCT and PAR-2-deficient aortas
Assay: ex vivo angiogenesis assay (aortic ring sprouting in Matrigel)
Type: cell-based, mouse
Settings: for sprouting induced by single factor replacing serum: wild-type and TFΔCT aortas, EGM without serum, day 4, growth factors 20 ng/ml, VIIa 50 nM (FIG. 2c)
Experimental: Angiogenesis assays. The ex vivo angiogenesis assay was adopted from the rat aortic sprouting model described by Masson et al. Biol. Proced. […] Thoracic aortas from 8-11 week old wild-type, TFΔCT, PAR-2-deficient, and TFΔCT/PAR-2-deficient mice of either sex were embedded in Matrigel, and overlaid with EGM supplemented with 5% serum, growth factors, or inhibitors at the following concentrations: VEGF, bFGF, and PDGF: 20 ng/ml; hirudin: 500 nM, VIIai: […], NAPc2: […], NAP5: 1 μM, VIIa: 50 nM. In most cases, the number of aortic sprouts was determined at day 3 and 4 without knowledge of the genotype. Aortic ring RNA was isolated by Trizol (Invitrogen) extraction using standard procedures, digested with DNAaseI, followed by RT-PCR for β-actin and TF. […] Tests used 2 different virus doses, referred to as high (1.1×10^10 virus particles/ml) and low (5×10^9 particles/ml). For confocal fluorescence microscopy, aortic pieces with a minimum of surrounding Matrigel were fixed with 4% paraformaldehyde and methanol, incubated with primary and secondary antibodies (24 hours each), and mounted in anti-fade medium (Vector laboratories). Alternatively, cryosections of OCT-embedded aortas were fixed with acetone and stained as described above.

| Substance | sprouting induced by single factor replacing serum | sprouting of aortas stimulated with VEGF in the absence of serum (VEGF 20 ng/ml, no serum, day 3 (FIG. 2a)) | difference in sprouting TFΔCT versus wild-type aortas with serum supplemented with VEGF (serum plus VEGF 20 ng/ml, day 3 (FIG. 2a)) | effect of protease inhibitor on aortic sprouting (wild-type and TFΔCT aortas in serum, 3 days, hirudin 500 nM, NAP5 1 μM (FIG. 2b)) |
| --- | --- | --- | --- | --- |
| bFGF: pro-angiogenic growth factor | None of these factors promoted substantial sprouting | – | – | – |
| PDGF-AA: selective agonist for PDGF receptor a | None of these factors promoted substantial sprouting | – | – | – |
| VEGF | None of these factors promoted substantial sprouting | very limited sprouting | did not abolish the difference in sprouting | – |
| hirudin [reference compound] | – | – | – | no effect on sprouting |
